We go through 20 compounds from patent US5760036A, “Aminediol protease inhibitors” (E. R. Squibb & Sons, Inc., priority 1995, dated 1998).

Structures can show the parent of a compound that is named as a salt.

The target in one assay is T1, HIV protease (Human immunodeficiency virus type 1 group M subtype B, UniProt P04585).
T1 construct: and purified protease
As to the kind of experiment: HIV Protease Assay. It counts as biochemical. The following applies: 10 μM inhibitor, 4% DMSO, 450 μM substrate, pH 5.5, 30 minutes at 37° C., RP-HPLC. As to the method: An HIV protease standard assay was performed in a 60 μl reaction medium containing 50 mM sodium acetate, pH 5.5, 100 μg/ml bovine serum albumen,450 μM substrate (H2 N-Val-Ser-Gln-Asn-(β-naphthyl-alanine)-Pro-Val-Ile-OH), and purified protease. The reaction medium was incubated for 30 minutes at 37° C., quenched by the addition of 140 μl 5% H3 PO4, then analyzed by reverse phase HPLC using UV220 detection. In a typical control assay, 7% of the substrate was hydrolyzed. Aminediol inhibitors of the present invention, listed in the following Table 1, were then employed in the assay, for which purpose they were prepared as a […] solution in DMSO, then diluted to 30 μM with 50 mM sodium acetate/bovine serum albumen. This working stock was then diluted three-fold into the protease reaction medium, for a final concentration of 10 μM inhibitor and 4% DMSO.
As to `CC(C)(CO)OC(=O)N[C@@H](Cc1ccccc1)[C@H](O)CNC[C@@H](O)[C@H](Cc1ccccc1)NC(=O)C1(O)CCCC1(C)C` (single isomer, unassigned; isomer b) [Compound 369, [1S-[1R*,2S*(2S*,3R*)]]-[r3-[[3-[[(2,2-Dimethyl-1-hydroxycyclopentyl)-carbonyl]amino]-2-hydroxy-4-phenylbutyl]amino]-2-hydroxy-1-(phenylmethyl)propyl]carbamic acid, 2-hydroxy-1,1-dimethylethyl ester. isomer B], the “HIV Protease % Inhibition at 10 μM” value was 96%.

For the compound `CC(C)(C)OC(=O)N[C@@H](Cc1ccccc1)[C@H](O)CNC[C@@H](O)[C@H](Cc1ccccc1)NC(=O)C1(O)CCc2ccccc21` (single isomer, unassigned; isomer b) [Compound 376, [1S-[1R*,2S*(2S*, 3R*)]]-[3-[[3-[[(2,3-Dihydro-1-hydroxy-1H-inden-1-yl)carbonyl]amino]-2-hydroxy-4-phenylbutyl]amino]-2-hydroxy-1-(phenylmethyl)propyl]carbamic acid, 1.1-dimethylethyl ester, isomer B], the “HIV Protease % Inhibition at 10 μM” value amounted to 63%.

Staying with this assay, now noted: pH 5.5, 10 μM inhibitor, 4% DMSO, 450 μM substrate, pH 5.5, 30 minutes at 37° C., RP-HPLC; read-out: HIV Protease % Inhibition at 10 μM.
The term inhibition denotes the percentage by which the read-out fell short of the control. For the compound `CC(C)(C)OC(=O)N[C@@H](Cc1ccccc1)[C@H](O)CNC[C@H](O)[C@@H](Cc1ccccc1)NC(=O)OC(C)(C)C` [Compound 26ii, [1R-[1R*,2S*(2R*,3S*)]]-3-[[3-[[(1,1-Dimethylethoxy)carbonyl]amino]-2-hydroxy-4-phenylbutyl]amino]-2-hydroxy-1-(phenylmethyl)-propyl]carbamic acid, 1,1-dimethylethyl ester], the inhibition at 10 µM is 41%.

For the compound `CNC(=O)OC(C(=O)N[C@@H](Cc1ccccc1)[C@H](O)CNC[C@@H](O)[C@H](Cc1ccccc1)NC(=O)OC(C)(C)C)C(C)(C)C` (stereo partly drawn) [Compound 287, [1S-[1R*,2S*(2S*,3R*)]]-[3-[[3-[[3,3-Dimethyl-2-[[(methylamino)carbonyl]oxy]-1-oxobutyl]amino]-2-hydroxy-4-phenylbutyl]amino]-2-hydroxy-1-(phenylmethyl)propyl]-carbamic acid, 1,1-dimethylethyl ester], the inhibition at 10 µM came out at 89%.

Turning to `CC(C)(C)OC(=O)N[C@@H](Cc1ccccc1)[C@H](O)CNC[C@@H](O)[C@H](Cc1ccccc1OCc1ccccc1)NC(=O)OC(C)(C)C` [Compound 348, [1S-[1R*,2S*(2S*,3R*)]]-[3-[[(3-[[(1,1-Dimethylethoxy)carbonyl]amino]-2-hydroxy-4-[2-(phenylmethoxy)phenyl]butyl]amino]-2-hydroxy-1-(phenylmethyl)propyl]carbamic acid, 1,1-dimethylethyl ester], the inhibition at 10 µM stood at 99%.

With `CC(C)(C)CCN[C@@H](Cc1ccccc1)[C@H](O)CNC[C@@H](O)[C@H](Cc1ccccc1)NC(=O)OC(C)(C)C` [Compound 127, [1S-[1R*,2S*(2S*,3R*)]]-[3-[[3-[(3,3-Dimethylbutyl)amino]-2-hydroxy-4-phenylbutyl]amino]-2-hydroxy-1-(phenylmethyl)propyl]carbamic acid, 1,1-dimethylethyl ester], the inhibition at 10 µM came out at 15%.

As to `CC(C)(C)OC(=O)NCC(O)[C@H](Cc1ccccc1)NC[C@@H](O)[C@H](Cc1ccccc1)NC(=O)OC(C)(C)C` (mixture of isomers) [Compound 188, [3S-[3R*(2S*,3R*)]]-[3-[[3-[[(1,1-Dimethylethoxy)carbonyl]amino]-2-hydroxy-4-phenyl-butyl]amino]-2-hydroxy-4-phenylbutyl]carbamic acid, 1,1-dimethylethyl ester, 2:1 diastereomer mixture], the inhibition at 10 µM was found to be 21%.

As for `CC(C)(C)OC(=O)N[C@@H](Cc1ccccc1)[C@H](O)CNC[C@@H](O)[C@H](Cc1ccccc1)N[S+]([O-])C(C)(C)C` (stereo partly drawn) [Compound 182, [1S-[1R*,2S*(2S*,3R*)]]-[3-[[(1,1-Dimethylethyl)-sulfinyl]amino-2-hydroxy-4-phenylbutyl]amino]2-hydroxy-1-(phenylmethyl)propyl]carbamic acid, 1,1-dimethylethyl ester], the inhibition at 10 µM worked out at 41%.

Turning to `CC(C)(C)OC(=O)N[C@@H](Cc1ccccc1)[C@H](O)CNC[C@@H](O)[C@H](Cc1ccccc1)NC(=O)OC(C)(C)CCCN` [Compound 180, [1S-(1R*,2S*)]-[Iminobis[2-hydroxy-1-(phenylmethyl)-3,1-propanediyl]biscarbamic acid, 4-amino-1,1-dimethylbutyl 1,1-dimethylethyl ester, fumarate (2:3) salt], the inhibition at 10 µM turned out to be 73%.

With `CC(C)(C)OC(=O)N[C@@H](Cc1ccccc1)[C@H](O)CNC[C@@H](O)[C@H](Cc1ccccc1)NC(=O)NCc1ccccc1` (relative stereo) [Compound 57, [1R*,2S*(2S*,3R*)]-[2-Hydroxy-3[[2-hydroxy-4-phenyl-3-[[[(phenylmethyl)amino]-carbonyl]amino]butyl]amino]-1-(phenylmethyl)-propyl]carbamic acid, 1,1-dimethylethyl ester], the inhibition at 10 µM was determined as 46%.

Consider `CC(C)(C)OC(=O)N[C@@H](Cc1ccccc1)[C@H](O)CNC[C@@H](O)[C@H](Cc1ccccc1)NC(=O)C1c2ccccc2CC1O` (stereo partly drawn) [Compound 237, [1S-[1R*,2S*[2S*,3R*(trans)]]]-[3-[[3-[[(2,3-Dihydro-2-hydroxy-1H-inden-1-yl)carbonyl]amino]-2-hydroxy-4-phenylbutyl]amino]-2-hydroxy-1-(phenylmethyl)propyl]carbamic acid, 1,1-dimethylethyl ester], for which the inhibition at 10 µM worked out at 54%.

Turning to `CC(C)(C)OC(=O)N[C@@H](Cc1ccccc1)[C@H](O)CNC[C@@H](O)[C@H](Cc1ccccc1)NC(=O)OC(C)(C)COCc1ccccc1` [Compound 157, [1S-(1R*,2S*)]-[Iminobis[2-hydroxy-1-(phenylmethyl)-3,1-propanediyl)]biscarbamic acid, 1,1-dimethylethyl 1,1-dimethyl-2-(phenylmethoxy)-ethyl ester], the inhibition at 10 µM stood at 90%.

Take `CON=C(C(=O)N[C@@H](Cc1ccccc1)[C@H](O)CNC[C@@H](O)[C@H](Cc1ccccc1)NC(=O)OC(C)(C)C)C(C)(C)C` [Compound 296, [1S-[1R*,2S*(2S*,3R*)]]-[2-Hydroxy-3-[[2-hydroxy-3-[[2-(methoxyimino)-3,3-dimethyl-1-oxobutyl]amino]-4-phenylbutyl]amino]-1-(phenylmethyl)propyl]carbamic acid, 1,1-dimethylethyl ester]: the inhibition at 10 µM worked out at 37%.

Consider `CC(C)(C)OC(=O)N[C@@H](Cc1ccccc1)[C@H](O)CNCC(C)(O)[C@H](Cc1ccccc1)NC(=O)OC(C)(C)C` (stereo partly drawn) [Compound 192, [1S-[1R*,2S*(3R*)]]-[3-[[3-[[(1,1-Dimethylethoxy)carbonyl]amino]-2-hydroxy-2-methyl-4-phenylbutyl]amino]-2-hydroxy-1-(phenylmethyl)propyl]amino]carbamic acid, 1,1-dimethylethyl ester], for which the inhibition at 10 µM worked out at 85%.

Turning to `CC(C)(C)OC(=O)N[C@@H](Cc1ccccc1)[C@H](O)CNC[C@@H](O)[C@H](Cc1ccccc1)NC(=O)C(=NO)C(C)(C)C` [Compound 295, [1S-[1R*,2S*(2S*,3R*)]]-[2-Hydroxy-3-[[2-hydroxy-3-[[2-(hydroxyimino)-3,3-dimethyl-1-oxobutyl]amino]-4-phenylbutyl]amino]-1-(phenylmethyl)propyl]carbamic acid, 1,1-dimethylethyl ester], the inhibition at 10 µM amounted to 82%.

For the compound `CCc1ccccc1CC(NC(=O)OC(C)(C)C)C(O)CNCC(O)C(Cc1ccccc1)NC(=O)OC(C)(C)C` (centres unmarked) [Compound 371], the inhibition at 10 µM was determined as 98%.

`O=C(Cc1ccccc1)N[C@@H](Cc1ccccc1)[C@H](O)CNC[C@@H](O)[C@H](Cc1ccccc1)NC(=O)Cc1ccccc1` [Compound 83, [R-(R*,S*)]-N,N'-[Iminobis[2-hydroxy-1-(phenylmethyl)-3,1-propanediyl[bisbenzeneacetamide]: the inhibition at 10 µM is 19%.

With `CC(C)(C)OC(=O)N[C@@H](Cc1ccccc1)C(=O)CNC[C@@H](O)[C@H](Cc1ccccc1)NC(=O)OC(C)(C)C` [Compound 193, [1S-[1R*,2S*(3R*)]]-[3-[[3-[[(1,1-Dimethylethoxy)carbonyl]amino]-2-oxo-4-phenylbutyl]amino]-2-hydroxy-1-(phenylmethyl)propyl]carbamic acid, 1,1-dimethylethyl ester], the inhibition at 10 µM came out at 66%.

For the compound `CC(C)(C)OC(=O)N[C@@H](Cc1ccccc1)[C@H](O)CNC[C@@H](O)[C@H](Cc1ccc(OCCN2CCOCC2=O)cc1)NC(=O)OC(C)(C)C` [Compound 380, [1S-[1R*, 2S*(2S*, 3R*)]]-[3-[[3-[[(1,1-Dimethylethoxy)carbonyl]amino]-2-hydroxy-4-[4-[2-(3-oxo-4-morpholinyl)ethoxy]phenyl]-butyl]amino]-2-hydroxy-1-(phenylmethyl)propyl]-carbamic acid, 1,1-dimethylethyl ester], the inhibition at 10 µM is 97%.

As to `CC(C)(C)OC(=O)N[C@@H](Cc1ccccc1)C(=O)N[C@@H](Cc1ccccc1)[C@H](O)CNC[C@@H](O)[C@H](Cc1ccccc1)NC(=O)OC(C)(C)C` [Compound 56, [S-[1R*,2S*(2S*,3R*)]-N^2-[(1,1-Dimethylethoxy)carbonyl]-N-[3-[[3-[[(1,1-dimethlethoxy)carbonyl]amino]-2-hydroxy-4-phenylbutyl]-amino]-2-hydroxy-1-(phenylmethyl)propyl]-L-phenylalaninamide], the inhibition at 10 µM came out at 47%.
